According to patent US5891454A, “Anti-cancer drug and special tumor necrotizing agent” (Wu; Alexander, priority 1997, dated 1999):
Where “and” joins values, the source holds several entries; their conditions need not be identical. Identical values can stand only once.

Experiments:
[1] = system: mouse transplanted liver tumor; assay: Anti-tumor effect on mouse transplanted liver tumor (I.M.); format: in vivo; details: CTX 18.0 mg/kg/d x10
Description: (§1) A solvent blank (i.e., the specifically designed solution illustrated in Table 1), a saline blank as a […] control are used as controls for the in vivo tests. As per the Drug Administration Law of the People's Republic of China, and the rules governing observation of the pharmaco-dynamic study of the therapy action, the tumors were surgically removed from tumor infected mice and were homogenized to form suspensions followed by filtration to make a suspension solution at 1×10^6 -10^7 cell/ml. The suspension was injected (i.e., 0.2 ml per mice) into the test mice for tumor growth until the transplanted tumor cells were established and grew up to a size of 0.5×0.5 cm. […] At the end of the in vivo tests, several parameters such as mouse body weight, average tumor weight and percentage of tumor inhibition, are determined.
(§2) % inhibition rate=(average tumor weight of the solvent group or
(§3) tumor rate of the solvent group

mouse S-180 sarcoma = assay: Anti-tumor effect on mouse transplanted sarcoma S-180 (I.M.); format: in vivo; details: CTX 18.0 mg/kg/d x10
Description: as §1, §2, §3

Solubility in water = format: physicochemical; details: water or a water-based solution
skin fungal diseases = details: 7-8% solution by weight with propylene glycol; cited from earlier work
[2] = P <0.01 vs saline control, three experiments

SMILES | Anti-tumor inhibit rate [1, 2] | Body weight final ([1]; outset 19.9, 20.3, 20.9 in three experiments, in g (unit assumed)) | Ave. weight of tumor (x + SD) ([1]; three experiments) | Anti-tumor inhibit rate (mouse S-180 sarcoma; [2]) | Body weight final (mouse S-180 sarcoma; outset 22.4, 22.6, 19.3 in three experiments, in g (unit assumed)) | Ave. weight of tumor (x ± SD) (mouse S-180 sarcoma; three experiments) | dissolution in water (Solubility in water) | topical anti-fungal activity (skin fungal diseases)
O=P1(N(CCCl)CCCl)NCCCO1 (centres unmarked) [CTX] | 40.7% and 46.2% and 60.0% | 27.9 and 28.5 | 1.81 ± 0.22 g and 1.57 ± 0.63 g and 0.94 ± 0.41 g | 51.6% and 53.3% and 52.5% | 30.9 and 26.4 | 1.37 ± 0.47 g and 1.29 ± 0.43 g and 1.14 ± 0.28 g | – | –
Cc1ccc(S(N)(=O)=O)cc1 [para-toluene sulfonamide] | – | – | – | – | – | – | not readily dissolved in water or in a water-based solution | highly effective
